Source: ChEMBL document CHEMBL5576107, “Wajeepeptin, a Cytotoxic and Antitrypanosomal Cyclic Depsipeptide from a Marine Moorena sp. Cyanobacterium” (J Nat Prod, 2024)
pIC50: −log10 of the molar value. Calls of active or inactive are those of the source. The rule behind the calls is not given here. Starred links: 1 amine or outer side, 2 acyl side, 3 side chain; linkers in the order of their positions; H or OH if unused. Non-standard residues stand in square brackets, D forms with d. Residues, ends and D or L forms follow the SMILES beside them. X1 = CC[C@@H](N[*:1])[C@H](C)C(=O)[*:2]; NMeI = CC[C@H](C)[C@H](NC)C(=O)O; NMeV = CN[C@H](C(=O)O)C(C)C; Hiv = CC(C)[C@H](O)C(=O)O; NMeA = CN[C@@H](C)C(=O)O; Lac = C[C@H](O)C(=O)O

Assays:
[1] = test system: Trypanosoma brucei rhodesiense; assay: Antitrypanosomal activity against Trypanosoma brucei rhodesiense IL-1501 measured after 69 hrs by alamar blue staining based microplate fluorescence assay; assay type: functional, organism-based; conditions: IL-1501, 69 h
Plasmodium falciparum = assay: Antimalarial activity against synchronized asexual blood stage Plasmodium falciparum 3D7 at 10 uM measured after 72 hrs by LDH assay; assay type: functional, organism-based
HeLa = assay: Antiproliferative activity against human HeLa cells measured after 72 hrs by MTT assay; assay type: functional, cell-based

Structure (SMILES) | pIC50 [1] | Activity (Plasmodium falciparum) | pIC50 (HeLa)
N=C(N)c1ccc(OCCCCCOc2ccc(C(=N)N)cc2)cc1 [PENTAMIDINE] | 8.20 |  | 
CC[C@H](C)[C@H]1C(=O)N[C@@H](C)C(=O)N(C)[C@@H](C(C)C)C(=O)N(C)[C@@H](C)C(=O)N[C@@H](C(C)C)C(=O)N(C)[C@@H](C(C)C)C(=O)O[C@@H](C)C(=O)N[C@H](CC)[C@H](C)C(=O)O[C@@H](C(C)C)C(=O)N1C (cyclo(A[NMeV][NMeA]V[NMeV][Lac][X1][Hiv][NMeI])) | 6.14 | inactive | 5.43
